Measured values: PubChem BioAssay AID248 (DTP/NCI, 2004)
“And” between values parts separate entries of the source, which are not always exact repeats. Equal values may be shown once. Toxic doses and inconclusive results are not listed. Cut-off read from the data, not from the text of the source: active = T/C of 150% or more; inactive = T/C below 125%.

Test system: L1210 leukemia ip in BDF1 mice, survival T/C
Test: NCI In Vivo Anticancer Drug Screen. Data for tumor model L1210 Leukemia (intraperitoneal) in B6D2F1 (BDF1) mice
Details: endpoint: mean survival time, higher = longer survival
How it was run: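 Survival endpoint. Drug-treated group vs vehicle group, expressed as T divided by C. Tumor passaged by transplantation.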

[1] = dose: 50.0 mg/kg/injection, schedule: Q01DX001 (ip), vehicle: Klucel (hydroxypropylcellulose) (HPC)
[2] = dose: 100.0 mg/kg/injection, schedule: Q01DX001 (ip), vehicle: Klucel (hydroxypropylcellulose) (HPC)
[3] = dose: 200.0 mg/kg/injection, schedule: Q01DX001 (ip), vehicle: Klucel (hydroxypropylcellulose) (HPC)
[4] = dose: 400.0 mg/kg/injection, schedule: Q01DX001 (ip), vehicle: Klucel (hydroxypropylcellulose) (HPC)
[5] = dose: 100.0 mg/kg/injection, schedule: Q01DX001 (ip), vehicle: saline
[6] = dose: 200.0 mg/kg/injection, schedule: Q01DX001 (ip), vehicle: saline
[7] = dose: 400.0 mg/kg/injection, schedule: Q01DX001 (ip), vehicle: saline
[8] = dose: 100.0 mg/kg/injection, schedule: Q01DX009 (ip), vehicle: Klucel (hydroxypropylcellulose) (HPC)
[9] = dose: 100.0 mg/kg/injection, schedule: Q04DX003 (ip), vehicle: Klucel (hydroxypropylcellulose) (HPC)
[10] = dose: 200.0 mg/kg/injection, schedule: Q01DX009 (ip), vehicle: Klucel (hydroxypropylcellulose) (HPC)
[11] = dose: 200.0 mg/kg/injection, schedule: Q04DX003 (ip), vehicle: Klucel (hydroxypropylcellulose) (HPC)
[12] = dose: 400.0 mg/kg/injection, schedule: Q01DX009 (ip), vehicle: Klucel (hydroxypropylcellulose) (HPC)
[13] = dose: 400.0 mg/kg/injection, schedule: Q04DX003 (ip), vehicle: Klucel (hydroxypropylcellulose) (HPC)
[14] = dose: 50.0 mg/kg/injection, schedule: Q01DX009 (ip), vehicle: Klucel (hydroxypropylcellulose) (HPC)
[15] = dose: 100.0 mg/kg/injection, schedule: Q01DX009 (ip), vehicle: saline with Tween-80

Measured: T/C

CCOC(=O)NCc1cccc2ccccc12
inactive: [1] 93 % of control | [2] 98 % of control | [3] 90 % of control | [4] 86 % of control

CC(C)NC(=O)Nc1ccc(F)cc1
inactive: dose: 100.0 mg/kg/injection, schedule: Q01DX009 (ip), vehicle: acetone 92 % of control | dose: 200.0 mg/kg/injection, schedule: Q01DX009 (ip), vehicle: acetone 101 % of control | dose: 400.0 mg/kg/injection, schedule: Q01DX009 (ip), vehicle: acetone 94 % of control

COCCN(/N=N/c1nc[nH]c1C(N)=O)C(C)(C)C
inactive: dose: 50.0 mg/kg/injection, schedule: Q01DX001 (ip), vehicle: water 100 % of control | dose: 50.0 mg/kg/injection, schedule: Q04DX003 (ip), vehicle: water 101 % of control | dose: 100.0 mg/kg/injection, schedule: Q01DX001 (ip), vehicle: water 97 % of control | dose: 100.0 mg/kg/injection, schedule: Q04DX003 (ip), vehicle: water 101 % of control | dose: 200.0 mg/kg/injection, schedule: Q01DX001 (ip), vehicle: water 92 % of control | dose: 200.0 mg/kg/injection, schedule: Q04DX003 (ip), vehicle: water 102 % of control | dose: 400.0 mg/kg/injection, schedule: Q01DX001 (ip), vehicle: water 97 % of control | dose: 400.0 mg/kg/injection, schedule: Q04DX003 (ip), vehicle: water 96 % of control

COc1ccc(C(=O)C(C)CN2CCOCC2)cc1 (stereo not given)
inactive: [5] 102 % of control | [6] 105 % of control | [7] 102 % of control

NC(=O)CNC(=O)OCc1ccccc1
inactive: [8] 102 % of control | [9] 94 % of control | [10] 94 % of control | [11] 105 % of control | [12] 107 % of control | [13] 94 % of control

N#[N+]c1c([O-])[nH]c(=O)[nH]c1=O
inactive: [14] 95 % of control | [8] 107 % of control | [10] 88 % of control

Nc1ccc(N=Nc2ccc(S(N)(=O)=O)cc2)c(N)n1
inactive: [5] 107 % of control | [6] 114 % of control | [7] 104 % of control

O=C(O)C(Cc1cccs1)c1ccccc1 (stereo not given)
inactive: dose: 50.0 mg/kg/injection, schedule: Q04DX003 (ip), vehicle: carboxymethylcellulose (CMC) 98 % of control | dose: 100.0 mg/kg/injection, schedule: Q04DX003 (ip), vehicle: carboxymethylcellulose (CMC) 106 % of control | dose: 200.0 mg/kg/injection, schedule: Q04DX003 (ip), vehicle: carboxymethylcellulose (CMC) 106 % of control

Nc1ncnc(N)c1NC(=O)c1ccc(C(=O)c2cccc([N+](=O)[O-])c2)cc1
inactive: dose: 100.0 mg/kg/injection, schedule: Q01DX001 (ip), vehicle: gum acacia 97 % of control | dose: 200.0 mg/kg/injection, schedule: Q01DX001 (ip), vehicle: gum acacia 100 % of control | dose: 400.0 mg/kg/injection, schedule: Q01DX001 (ip), vehicle: gum acacia 93 % of control

Cc1cc(OC(=O)Nc2ccc(Cl)c(Cl)c2)ccc1Cl
inactive: [8] 102 % of control | [9] 96 % of control | [10] 98 % of control | [11] 104 % of control | [12] 95 % of control | [13] 101 % of control

C[Si](C)(C)OSc1ccccc1[N+](=O)[O-]
inactive: dose: 12.5 mg/kg/injection, schedule: Q01DX009 (ip), vehicle: Klucel (hydroxypropylcellulose) (HPC) 93 % of control | dose: 25.0 mg/kg/injection, schedule: Q01DX009 (ip), vehicle: Klucel (hydroxypropylcellulose) (HPC) 92 % of control | [14] 93 % of control | [8] 104 % of control | [10] 95 % of control | [12] 97 % of control

Nc1cc(Cl)nc(-c2ccccc2)n1
inactive: [14] 98 % of control | [8] 98 % of control | [10] 102 % of control

CCCCCC1SC1CC1SC1CCCCCCCC(=O)N1CCOCC1 (stereo not given)
inactive: [15] 98 % of control

COc1cc(C(=O)CCC(=O)O)c(OC)c(C)c1C
inactive: dose: 100.0 mg/kg/injection, schedule: Q01DX001 (ip), vehicle: other 93 % of control | dose: 200.0 mg/kg/injection, schedule: Q01DX001 (ip), vehicle: other 96 % of control | dose: 400.0 mg/kg/injection, schedule: Q01DX001 (ip), vehicle: other 91 % of control

CCC[CH2][Sn]1([CH2]CCC)[S]CCOB(OCC[S][Sn]([CH2]CCC)([CH2]CCC)[S]CCOB2OCC[S][Sn]([CH2]CCC)([CH2]CCC)[S]CCO2)OCC[S]1
inactive: dose: 6.25 mg/kg/injection, schedule: Q01DX001 (ip), vehicle: Klucel (hydroxypropylcellulose) (HPC) 100 % of control | dose: 12.5 mg/kg/injection, schedule: Q01DX001 (ip), vehicle: Klucel (hydroxypropylcellulose) (HPC) 89 % of control | dose: 25.0 mg/kg/injection, schedule: Q01DX001 (ip), vehicle: Klucel (hydroxypropylcellulose) (HPC) 112 % of control

CCOC(=O)C(NC(C)=O)C(N)=S (stereo not given)
inactive: [5] 99 % of control | dose: 100.0 mg/kg/injection, schedule: Q01DX009 (ip), vehicle: saline 108 % of control | dose: 100.0 mg/kg/injection, schedule: Q04DX003 (ip), vehicle: saline 102 % of control | [6] 93 % of control | dose: 200.0 mg/kg/injection, schedule: Q01DX009 (ip), vehicle: saline 97 % of control | dose: 200.0 mg/kg/injection, schedule: Q04DX003 (ip), vehicle: saline 96 % of control | [7] 94 % of control | dose: 400.0 mg/kg/injection, schedule: Q01DX009 (ip), vehicle: saline 105 % of control | dose: 400.0 mg/kg/injection, schedule: Q04DX003 (ip), vehicle: saline 106 % of control

CCOC(=O)Cn1c(=O)n(CC(=O)OCC)c2ccccc21
inactive: dose: 100.0 mg/kg/injection, schedule: Q04DX002 (ip), vehicle: Klucel (hydroxypropylcellulose) (HPC) 104 % of control | dose: 200.0 mg/kg/injection, schedule: Q04DX002 (ip), vehicle: Klucel (hydroxypropylcellulose) (HPC) 100 % of control | dose: 400.0 mg/kg/injection, schedule: Q04DX002 (ip), vehicle: Klucel (hydroxypropylcellulose) (HPC) 110 % of control

Nc1c(F)c(F)c(N=Nc2ccccc2)c(F)c1F
inactive: dose: 100.0 mg/kg/injection, schedule: Q01DX001 (ip), vehicle: carboxymethylcellulose (CMC) 95 % of control | dose: 200.0 mg/kg/injection, schedule: Q01DX001 (ip), vehicle: carboxymethylcellulose (CMC) 96 % of control | dose: 400.0 mg/kg/injection, schedule: Q01DX001 (ip), vehicle: carboxymethylcellulose (CMC) 95 % of control

C[n+]1ccc(Nc2ccc(NC(=O)c3ccc(N)cc3[N+](=O)[O-])cc2)cc1
inactive: dose: 25.0 mg/kg/injection, schedule: Q01DX001 (ip), vehicle: saline with Tween-80 93 % of control and 107 % of control | dose: 50.0 mg/kg/injection, schedule: Q01DX001 (ip), vehicle: saline with Tween-80 97 % of control | dose: 100.0 mg/kg/injection, schedule: Q04DX002 (ip), vehicle: saline with Tween-80 108 % of control and 117 % of control | dose: 200.0 mg/kg/injection, schedule: Q04DX002 (ip), vehicle: saline with Tween-80 94 % of control and 101 % of control | dose: 400.0 mg/kg/injection, schedule: Q01DX001 (ip), vehicle: saline with Tween-80 104 % of control and 91 % of control | dose: 400.0 mg/kg/injection, schedule: Q04DX002 (ip), vehicle: saline with Tween-80 103 % of control and 114 % of control

CC(=O)N(C)c1ccc(S(=O)(=O)Cl)cc1
inactive: [15] 101 % of control | dose: 200.0 mg/kg/injection, schedule: Q01DX009 (ip), vehicle: saline with Tween-80 95 % of control

CC(C)C(C)/C=C\C(C)C1CCC2C3=CCC4CC(=O)CCC4(C)C3CCC21C (stereo not given)
inactive: [1] 88 % of control | [2] 93 % of control | [3] 88 % of control | [4] 97 % of control

CCCCCCCC(=O)O[C@H]1[C@H]2[C@@H](CC1(C)C)C(=O)[C@]13O[C@H]1C(=O)[C@]1(CO1)[C@]23C
inactive: dose: 5.0 mg/kg/injection, schedule: Q01DX009 (ip), vehicle: saline with Tween-80 108 % of control | dose: 10.0 mg/kg/injection, schedule: Q01DX009 (ip), vehicle: saline with Tween-80 119 % of control | dose: 10.0 mg/kg/injection, schedule: Q04DX003 (ip), vehicle: saline with Tween-80 97 % of control | dose: 20.0 mg/kg/injection, schedule: Q01DX009 (ip), vehicle: saline with Tween-80 86 % of control | dose: 20.0 mg/kg/injection, schedule: Q04DX003 (ip), vehicle: saline with Tween-80 99 % of control
